Laboratory results published in ChEMBL document CHEMBL4219256, “Design, Synthesis, and Biological Evaluation of 4-Quinoline Carboxylic Acids as Inhibitors of Dihydroorotate Dehydrogenase” (J Med Chem, 2018).

Tests used:
[1] = tested on: MIA PaCa-2; assay: Antiproliferative activity against human MIAPaCa2 cells after 72 hrs by MTT assay; assay type: functional, cell-based
[2] = tested on: HCT-116; assay: Antiproliferative activity against human HCT116 cells over-expressing DHODH after 72 hrs by MTT assay; assay type: functional, cell-based
[3] = target: Dihydroorotate dehydrogenase (quinone), mitochondrial (Homo sapiens, UniProt Q02127)
Chain of Dihydroorotate dehydrogenase (quinone), mitochondrial (Q02127 whole entry): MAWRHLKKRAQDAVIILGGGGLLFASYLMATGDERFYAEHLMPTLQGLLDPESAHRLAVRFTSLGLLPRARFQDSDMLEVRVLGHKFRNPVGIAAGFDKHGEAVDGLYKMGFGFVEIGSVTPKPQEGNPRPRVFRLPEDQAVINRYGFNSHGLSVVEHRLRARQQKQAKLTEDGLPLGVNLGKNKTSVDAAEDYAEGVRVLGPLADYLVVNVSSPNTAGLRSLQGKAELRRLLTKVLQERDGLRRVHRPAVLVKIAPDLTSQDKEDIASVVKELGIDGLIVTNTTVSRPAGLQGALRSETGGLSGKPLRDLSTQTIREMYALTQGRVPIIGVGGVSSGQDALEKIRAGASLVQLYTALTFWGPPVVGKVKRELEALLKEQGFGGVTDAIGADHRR
Description: Inhibition of DHODH (unknown origin) expressed in Escherichia coli Rosetta2(DE3) assessed as reduction of DCIP using dihydroorotate as substrate preincubated for 30 mins followed by substrate addition in presence of CoQ10 measured after 1 hr

[4] = tested on: HL-60; assay: Antiproliferative activity against human HL60 cells after 72 hrs by MTT assay
[5] = Thermodynamic aqueous solubility of the compound in pH 7.4 phosphate buffer at 2.9 mg/ml after overnight incubation by CLND method; assay type: physicochemical
[6] = tested on: HCT-116; assay: Growth inhibition of human HCT116 cells over-expressing DHODH at 2 times antiproliferative IC50 after 72 hrs in presence of 5 uM uridine by MTT assay; assay type: functional
[7] = Thermodynamic aqueous solubility of the compound in pH 7.4 phosphate buffer at 4.9 mg/ml after overnight incubation by CLND method; assay type: physicochemical
[8] = Thermodynamic aqueous solubility of the compound in pH 7.4 phosphate buffer at 6.7 mg/ml after overnight incubation by CLND method; assay type: physicochemical
[9] = Thermodynamic aqueous solubility of the compound in pH 7.4 phosphate buffer at 8.7 mg/ml after overnight incubation by CLND method; assay type: physicochemical

For `O=C(O)c1cc(-c2ccccc2)nc2ccccc12` [CINCHOPHEN], the IC50 [1] was > 100 µM, the IC50 [2] was > 100 µM and the IC50 [3] was 144 µM.
In the case of `O=C(O)c1cc(-c2ccc(-c3cnccc3C(F)(F)F)cc2)nc2ccccc12`, the IC50 [1] is reported as 8.71 µM and the IC50 [2] is reported as 3.87 µM.
Work on `Cc1c(-c2ccc(-c3cccnc3F)cc2)nc2ccc(Cl)cc2c1C(=O)O` yielded an IC50 [1] of 14.7 µM and an IC50 [2] of 5.43 µM.
In the case of `O=C(O)c1cc(-c2ccc(-c3ccncc3)cc2)nc2ccccc12`, the IC50 [1] is reported as 68.1 µM and the IC50 [2] is reported as 33.6 µM.
With `Cc1c(-c2ccc(-c3cccnc3F)cc2)nc2ccc(F)cc2c1C(=O)O` the IC50 [1] was 23.6 µM and the IC50 [2] was 5.71 µM.
Compound `Cc1c(-c2ccc(-c3cccnc3Cl)cc2)nc2ccccc2c1C(=O)O` has an IC50 [4] of 15.3 µM, an IC50 [1] of 8.64 µM and an IC50 [2] of 6.44 µM.
`Cc1ncccc1-c1ccc(-c2cc(C(=O)O)c3ccccc3n2)cc1` showed an IC50 [4] of 11.6 µM and an IC50 [1] of 18.2 µM.
For `O=C(O)c1cc(-c2ccc(-c3cccnc3)cc2)nc2ccccc12`, the IC50 [1] was 32.8 µM and the IC50 [2] was 20.9 µM.
For `O=C(O)c1cc(-c2ccc(C3CCCCC3)cc2)nc2ccccc12`, the Therm_solubility [5] was 43.9 µM, the “growth inhibition (GI)” value [6] was <50% and the IC50 [1] was 5.88 µM. The Therm_solubility [7] was 48 µM and the IC50 [2] was 4.22 µM.
For `Cc1ccc2nc(-c3ccc(-c4cccnc4Cl)cc3)c(C)c(C(=O)O)c2c1`, the IC50 [1] was 8.29 µM and the IC50 [2] was 11.1 µM.
`Cc1c(-c2ccc(-c3cccnc3F)cc2)nc2ccccc2c1C(=O)O` showed an IC50 [1] of 13.4 µM and an IC50 [2] of 21.3 µM.
For `Cc1ccncc1-c1ccc(-c2cc(C(=O)O)c3ccccc3n2)cc1`, the IC50 [1] was 17.9 µM and the IC50 [2] was 10.8 µM.
For `O=C(O)c1cc(-c2ccc(N3CCOCC3)cc2)nc2ccccc12`, the IC50 [1] was > 100 µM, the IC50 [2] was > 100 µM and the IC50 [3] was > 200 µM.
With `COC(=O)c1cc(-c2ccc(-c3ccccc3)cc2)nc2ccccc12` the IC50 [1] was 11.5 µM, the IC50 [2] was 6.9 µM and the IC50 [3] was > 200 µM.
With `CC(C)Cc1ccc(-c2cc(C(=O)O)c3ccccc3n2)cc1` the IC50 [1] was 14.5 µM.
For `Cc1c(-c2ccc(-c3ccccc3)cc2)nc2cnccc2c1C(=O)O`, the IC50 [4] was 7.08 µM, the IC50 [1] was 4.5 µM and the Therm_solubility [8] was 2628.4 µM. The Therm_solubility [9] was 3096.3 µM, the IC50 [2] was 6.3 µM and the IC50 [3] was 0.0283 µM.
For `O=C(O)c1cc(-c2ccc(-c3cncnc3)cc2)nc2ccccc12`, the IC50 [1] was > 50 µM, the IC50 [2] was > 50 µM and the IC50 [3] was > 200 µM.
For `O=C(O)c1cc(-c2ccc(-c3ccccn3)cc2)nc2ccccc12`, the IC50 [1] was 49.3 µM and the IC50 [2] was 39.6 µM.
In the case of `COc1ncccc1-c1ccc(-c2cc(C(=O)O)c3ccccc3n2)cc1`, the IC50 [1] is reported as 13.6 µM.
In the case of `Cc1ccc(-c2ccc(-c3cc(C(=O)O)c4ccccc4n3)cc2)c(Cl)n1`, the IC50 [1] is reported as 14.2 µM and the IC50 [2] is reported as 5.13 µM.
With `Cc1c(-c2ccc(-c3ccccc3)cc2)nc2ccccc2c1C(=O)O` the IC50 [1] was 5.29 µM and the IC50 [2] was 8.51 µM.
With `Cc1ccc(-c2ccc(-c3nc4ccc(F)cc4c(C(=O)O)c3C)cc2)c(F)n1` the IC50 [1] was 33.8 µM and the IC50 [2] was 33.7 µM.
In the case of `COC(=O)c1cc(-c2ccc(N3CCCCC3)cc2)nc2ccccc12`, the IC50 [1] is reported as 31.8 µM, the IC50 [2] is reported as 38.2 µM and the IC50 [3] is reported as > 200 µM.
Work on `O=C(O)c1cc(-c2ccc(-c3cccnc3F)cc2)nc2ccccc12` yielded an IC50 [1] of 32.1 µM, an IC50 [2] of 11.2 µM and an IC50 [3] of 1.42 µM.
